Test results reported in US20230149333A1, “COMPOSITIONS AND USES OF LOCALLY APPLIED SYNTHETIC AMINO ACID POLYMERS FOR PREVENTION AND TREATMENT OF VIRAL INFECTIONS” (Amicrobe, Inc., priority 2020, published 2023).

Assays:
[1] = tested on: Coronavirus (strain OC43); experiment: Virucidal Suspension Test (In-Vitro Time-Kill method) based upon ASTM E1052-20
Method: (§1) The antiviral activities of Composition A and Composition B were evaluated by challenging them with two different viruses, Coronavirus (strain OC43, ZeptoMetrix Corp. #0810024CF) and Influenza A H1N1 (strain A/WS/33, ATCC #VR-1520). A Virucidal Suspension Test (In-Vitro Time-Kill method) based upon the ASTM E1052-20, “Standard Practice to Assess the Activity of Microbicides against Viruses in Suspension” was used. The percent and log10 reductions from the initial populations of the viral strains were determined following exposure to Compositions A and B at two different exposure times (2 minutes and 10 minutes).

[2] = tested on: Influenza A H1N1 (strain A/WS/33); experiment: as above
Method: as §1

Substance | Log10 reduction ([1]; 10 µg/mL, 2 min exposure) | Percent reduction ([1]; 10 µg/mL, 2 min exposure) | Log10 reduction ([1]; 10 µg/mL, 10 min exposure) | Percent reduction ([1]; 10 µg/mL, 10 min exposure) | Log10 reduction ([1]; 100 µg/mL, 2 min exposure) | Percent reduction ([1]; 100 µg/mL, 2 min exposure) | Log10 reduction ([1]; 100 µg/mL, 10 min exposure) | Percent reduction ([1]; 100 µg/mL, 10 min exposure) | Log10 reduction ([1]; 1000 µg/mL, 2 min exposure) | Percent reduction ([1]; 1000 µg/mL, 2 min exposure) | Log10 reduction ([1]; 1000 µg/mL, 10 min exposure) | Percent reduction ([1]; 1000 µg/mL, 10 min exposure) | Log10 reduction ([2]; 10 µg/mL, 2 min exposure) | Percent reduction ([2]; 10 µg/mL, 2 min exposure) | Log10 reduction ([2]; 10 µg/mL, 10 min exposure) | Percent reduction ([2]; 10 µg/mL, 10 min exposure) | Log10 reduction ([2]; 100 µg/mL, 2 min exposure) | Percent reduction ([2]; 100 µg/mL, 2 min exposure) | Log10 reduction ([2]; 100 µg/mL, 10 min exposure) | Percent reduction ([2]; 100 µg/mL, 10 min exposure) | also measured
Poly(L-lysine hydrochloride)-b-poly(L-leucine) [Composition B] | 0.25 log10 | 43.77% | 1 log10 | 90% | 0.75 log10 | 82.22% | 0.75 log10 | 82.22% | 0.5 log10 | 68.38% | 0.75 log10 | 82.22% | 0.75 log10 | 82.22% | 0.75 log10 | 82.22% | 0.50 log10 | 68.38% | 0.50 log10 | 68.38% | Log10 reduction ([2]; 1000 µg/mL, 2 min exposure): 0.00 log10; Percent reduction ([2]; 1000 µg/mL, 2 min exposure): 0.00%; Log10 reduction ([2]; 1000 µg/mL, 10 min exposure): 1.00 log10; Percent reduction ([2]; 1000 µg/mL, 10 min exposure): 90.00%
Poly(L-lysine hydrochloride)-b-poly(D,L-leucine) [Composition A] | 0.25 log10 | 43.77% | 0.5 log10 | 68.38% | 0.25 log10 | 43.77% | 0.5 log10 | 68.38% | 0.5 log10 | 68.38% | 1 log10 | 90% | 0.25 log10 | 43.77% | 0.50 log10 | 68.38% | 0.75 log10 | 82.22% | 0.75 log10 | 82.22% | Log10 reduction ([2]; 1000 µg/mL, 2 min exposure): 0.75 log10; Percent reduction ([2]; 1000 µg/mL, 2 min exposure): 82.22%; Log10 reduction ([2]; 1000 µg/mL, 10 min exposure): 0.50 log10; Percent reduction ([2]; 1000 µg/mL, 10 min exposure): 68.38%
